Measurements: paper PMC12851581, “Allosteric effects of the coupling cation in melibiose transporter MelB” (eLife, 2026)

Experiments:
[1] = target: T1, melibiose permease MelBSt (WT) (Salmonella enterica, UniProt P30878); experiment: ITC, […] NaCl, […] °C; [3H]raffinose transport in cells; type: binding; design: gene melB; WT MelBSt/CHis10
[2] = target: T1, melibiose permease MelBSt (WT); experiment: α-NPG downhill transport in E. coli DW2 cells (p-nitrophenol release); type: cell-based; design: gene melB; WT MelBSt/CHis10 expressed in E. coli DW2 cells
[3] = target: T1, melibiose permease MelBSt (WT); experiment: ITC, […] NaCl, […] °C; type: binding; design: gene melB; WT MelBSt/CHis10

T1 sequence (P30878 whole entry): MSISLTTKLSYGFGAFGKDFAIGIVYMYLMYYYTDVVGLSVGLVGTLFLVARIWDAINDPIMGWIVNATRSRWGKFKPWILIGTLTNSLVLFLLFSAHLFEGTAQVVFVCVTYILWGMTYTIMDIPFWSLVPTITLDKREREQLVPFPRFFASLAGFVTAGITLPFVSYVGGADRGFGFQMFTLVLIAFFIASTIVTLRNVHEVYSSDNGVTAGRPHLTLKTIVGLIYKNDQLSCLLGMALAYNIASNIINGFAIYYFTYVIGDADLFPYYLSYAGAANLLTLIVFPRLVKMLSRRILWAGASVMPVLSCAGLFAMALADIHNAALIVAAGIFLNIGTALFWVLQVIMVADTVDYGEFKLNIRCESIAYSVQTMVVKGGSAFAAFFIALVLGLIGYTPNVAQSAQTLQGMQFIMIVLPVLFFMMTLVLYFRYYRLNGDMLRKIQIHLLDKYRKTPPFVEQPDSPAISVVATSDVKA

For `OC[C@H]1O[C@H](OC[C@H]2O[C@H](O[C@]3(CO)O[C@H](CO)[C@@H](O)[C@@H]3O)[C@H](O)[C@@H](O)[C@@H]2O)[C@H](O)[C@@H](O)[C@H]1O` [raffinose, Raffinose], the Kd [1] was 3.79 ± 0.53 mM.
`O=[N+]([O-])c1ccc(O[C@H]2O[C@H](CO)[C@H](O)[C@H](O)[C@H]2O)cc1` [α-NPG, p-Nitrophenyl α-D-galactoside] was tested, and the “α-NPG downhill transport in E. coli DW2 cells (p-nitrophenol release)” value [2] was “both WT MelBSt and D59C uniport mutant mediated the translocation of α-NPG”.
Compound `CO[C@H]1O[C@H](CO)[C@H](O)[C@H](O)[C@H]1O` [α-MG, methyl α-D-galactoside] has a Kd [3] of 880 ± 40 µM.
